Experimental data: the supplement of paper PMC10307832

Legend:
Assay in all cases: relative viability (nuclei count vs DMSO), 5 days (fraction); higher = more cells survive
Afatinib + Bortezomib = compound: CN(C)C/C=C/C(=O)Nc1cc2c(Nc3ccc(F)c(Cl)c3)ncnc2cc1O[C@H]1CCOC1 [Afatinib] + CC(C)C[C@H](NC(=O)[C@H](Cc1ccccc1)NC(=O)c1cnccn1)B(O)O [Bortezomib] (partner 0.002 µM)
Procedure, shortened: (§1)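 After 5 days of treatment, lung cancer cells in 1536-well plates were fixed and stained in a single step (final 0.05% Triton X-100, 1% formaldehyde, 1 ug/ml Hoechst) and their nuclei counted on 4× images. Treatment had been applied by pin tool the day after seeding as one drug alone or as a fixed anchor-drug dose with five library-drug doses (not always all listed) in √10 steps. Relative viability is the nuclei count of treated wells divided by that of vehicle wells, and values are medians of duplicate plates.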

Afatinib + Tozasertib = compound: CN(C)C/C=C/C(=O)Nc1cc2c(Nc3ccc(F)c(Cl)c3)ncnc2cc1O[C@H]1CCOC1 [Afatinib] + Cc1cc(Nc2cc(N3CCN(C)CC3)nc(Sc3ccc(NC(=O)C4CC4)cc3)n2)n[nH]1 [Tozasertib] (partner 0.1 µM)
Procedure, shortened: as §1

Afatinib + AZD7762 = compound: CN(C)C/C=C/C(=O)Nc1cc2c(Nc3ccc(F)c(Cl)c3)ncnc2cc1O[C@H]1CCOC1 [Afatinib] + NC(=O)Nc1cc(-c2cccc(F)c2)sc1C(=O)N[C@H]1CCCNC1 [AZD7762] (partner 0.2 µM)
Procedure, shortened: as §1

Afatinib + Decitabine = compound: CN(C)C/C=C/C(=O)Nc1cc2c(Nc3ccc(F)c(Cl)c3)ncnc2cc1O[C@H]1CCOC1 [Afatinib] + Nc1ncn([C@H]2C[C@H](O)[C@@H](CO)O2)c(=O)n1 [Decitabine] (partner 2 µM)
Procedure, shortened: as §1

Row | Cell Line | relative viability (Afatinib + Bortezomib; first compound 0.005 µM) | relative viability (Afatinib + Bortezomib; first compound 0.01581 µM) | relative viability (Afatinib + Bortezomib; first compound 0.05 µM) | relative viability (Afatinib + Bortezomib; first compound 0.1581 µM) | relative viability (Afatinib + Bortezomib; first compound 0.5 µM) | relative viability (Afatinib + Tozasertib; first compound 0.005 µM) | relative viability (Afatinib + Tozasertib; first compound 0.01581 µM) | relative viability (Afatinib + Tozasertib; first compound 0.05 µM) | relative viability (Afatinib + Tozasertib; first compound 0.1581 µM) | relative viability (Afatinib + Tozasertib; first compound 0.5 µM) | relative viability (Afatinib + AZD7762; first compound 0.005 µM) | relative viability (Afatinib + AZD7762; first compound 0.01581 µM) | relative viability (Afatinib + AZD7762; first compound 0.05 µM) | relative viability (Afatinib + AZD7762; first compound 0.1581 µM) | relative viability (Afatinib + AZD7762; first compound 0.5 µM) | relative viability (Afatinib + Decitabine; first compound 0.005 µM) | relative viability (Afatinib + Decitabine; first compound 0.01581 µM) | relative viability (Afatinib + Decitabine; first compound 0.05 µM) | relative viability (Afatinib + Decitabine; first compound 0.1581 µM) | relative viability (Afatinib + Decitabine; first compound 0.5 µM)
1 | HOP-62 | 0.69 | 0.723 | 0.731 | 0.915 | 0.724 | 0.43 | 0.347 | 0.385 | 0.37 | 0.435 | 0.561 | 0.512 | 0.571 | 0.64 | 0.471 | 0.252 | 0.181 | 0.238 | 0.193 | 0.219
2 | LU99A | 1.19 | 1.07 | 1.08 | 1.08 | 1.02 | 0.275 | 0.273 | 0.256 | 0.254 | 0.231 | 0.238 | 0.41 | 0.37 | 0.257 | 0.293 | 0.903 | 0.93 | 0.929 | 0.873 | 0.964
3 | NCI-H647 | 0.921 | 0.808 | 1.08 | 1.11 | 1 | 0.251 | 0.263 | 0.417 | 0.211 | 0.276 | 0.32 | 0.426 | 0.403 | 0.525 | 0.466 | 0.459 | 0.499 | 0.425 | 0.315 | 0.419
4 | A-427 | 0.981 | 1.05 | 1 | 1.05 | 1.04 | 0.204 | 0.193 | 0.192 | 0.173 | 0.225 | 0.587 | 0.705 | 0.823 | 0.676 | 0.698 | 0.556 | 0.594 | 0.551 | 0.502 | 0.511
5 | NCI-H441 | 0.59 | 0.642 | 0.864 | 0.632 | 0.313 | 0.757 | 0.788 | 0.67 | 0.532 | 0.494 | 1.56 | 0.993 | 1.09 | 1.16 | 1.1 | 0.241 | 0.233 | 0.225 | 0.277 | 0.229
6 | NCI-H2126 | 1.11 | 1.04 | 1.01 | 0.984 | 0.852 | 0.852 | 0.813 | 0.668 | 0.571 | 0.632 | 1.02 | 1.02 | 0.822 | 0.776 | 0.793 | 0.565 | 0.519 | 0.595 | 0.502 | 0.425
7 | HCC-44 | 1.04 | 0.91 | 0.891 | 0.903 | 1.01 | 1.18 | 1.02 | 1 | 0.946 | 0.897 | 0.98 | 0.973 | 1.07 | 1 | 0.959 | 0.99 | 0.96 | 0.981 | 0.968 | 1.07
8 | NCI-H460 | 1.34 | 1.1 | 1.09 | 1.1 | 0.997 | 0.487 | 0.511 | 0.407 | 0.269 | 0.395 | 0.396 | 0.595 | 0.62 | 0.635 | 0.603 | 0.446 | 0.464 | 0.521 | 0.526 | 0.551
9 | NCI-H322M | 0.721 | 1.03 | 0.663 | 0.563 | 0.512 | 0.386 | 0.329 | 0.307 | 0.304 | 0.313 | 0.433 | 0.407 | 0.389 | 0.402 | 0.348 | 0.637 | 0.509 | 0.55 | 0.502 | 0.479
10 | EKVX | 0.811 | 0.655 | 0.468 | 0.308 | 0.199 | 0.379 | 0.423 | 0.31 | 0.132 | 0.169 | 0.638 | 0.368 | 0.373 | 0.315 | 0.865 | 0.248 | 0.208 | 0.218 | 0.159 | 0.171
11 | NCI-H1734 | 1.08 | 0.816 | 0.895 | 0.921 | 0.922 | 0.253 | 0.255 | 0.269 | 0.289 | 0.26 | 0.389 | 0.602 | 0.58 | 0.498 | 0.471 | 0.542 | 0.538 | 0.47 | 0.491 | 0.489
12 | ABC-1 | 0.32 | 0.342 | 0.349 | 0.271 | 0.304 | 0.172 | 0.123 | 0.177 | 0.168 | 0.165 | 0.631 | 0.717 | 0.666 | 0.662 | 1.09 | 1.09 | – | 1.26 | 0.928 | 1.05
13 | EPLC-272H | 0.879 | 0.88 | 0.905 | 0.78 | 0.861 | 0.205 | 0.427 | 0.133 | 0.164 | 0.253 | 0.139 | 0.229 | 0.175 | 0.187 | 0.168 | 0.355 | 0.328 | 0.359 | 0.309 | 0.348
14 | NCI-H1993 | 0.891 | 0.633 | 0.678 | 0.692 | 0.706 | 0.556 | 0.582 | 0.601 | 0.617 | 0.549 | 0.548 | 0.521 | 0.544 | 0.432 | 0.416 | 0.552 | 0.51 | 0.546 | 0.509 | 0.578
15 | NCI-H596 | 1.15 | 1.18 | 1.11 | 0.766 | 1.01 | 0.848 | 0.881 | 0.92 | 0.777 | 0.772 | 1.06 | 1.01 | 1.11 | 1.09 | 0.901 | 1.02 | 0.962 | 1.08 | 1.1 | 1.01
16 | HCC-827 | 0.704 | 0.25 | 0.299 | 0.316 | 0.342 | 0.0972 | 0.11 | 0.112 | 0.131 | 0.112 | 0.11 | 0.119 | 0.125 | 0.121 | 0.0942 | 0.162 | 0.155 | 0.178 | 0.174 | 0.161
17 | ChaGo-K-1 | 1.18 | 0.92 | 0.8 | 0.924 | 1.07 | 0.231 | 0.239 | 0.225 | 0.215 | 0.212 | 0.801 | 0.868 | 0.827 | 0.871 | 0.827 | 0.558 | 0.538 | 0.525 | 0.525 | 0.469
18 | EMC-BAC-2 | 1.03 | 1.05 | 1 | 0.927 | 1.03 | 0.315 | 0.299 | 0.342 | 0.326 | 0.309 | 1.07 | 1.17 | 1.14 | 1.06 | 1.19 | 0.968 | 0.924 | 0.98 | 0.901 | 1.02
19 | NCI-H23 | 0.951 | 0.948 | 0.995 | 0.901 | 0.904 | 0.356 | 0.366 | 0.321 | 0.391 | 0.315 | 0.17 | 0.226 | 0.237 | 0.23 | 0.195 | 0.327 | 0.314 | 0.278 | 0.317 | 0.309
20 | RERF-LC-KJ | 1.01 | 1.16 | 0.901 | 0.818 | 0.793 | 0.502 | 0.611 | 0.575 | 0.424 | 0.484 | 1.01 | 0.827 | 0.865 | 0.84 | 0.778 | 0.646 | 0.613 | 0.673 | 0.501 | 0.635
21 | LC-2-ad | 1.01 | 1.03 | 1.06 | 0.991 | 1.19 | 0.507 | 0.48 | 0.439 | 0.483 | 0.431 | 0.782 | 0.713 | 0.559 | 0.411 | 0.46 | 0.769 | 0.866 | 0.786 | 0.694 | 0.767
22 | HCC-15 | 1.04 | 1.09 | 1.04 | 1.04 | 1.03 | 0.49 | 0.488 | 0.422 | 0.299 | 0.406 | 1.14 | 1.39 | 1.32 | 1.19 | 1.05 | 0.75 | 0.622 | 0.625 | 0.594 | 0.645
23 | NCI-H2405 | 1 | 0.953 | 0.975 | 0.931 | 1.01 | 0.779 | 0.741 | 0.741 | 0.646 | 0.824 | 0.763 | 0.759 | 0.839 | 0.666 | 0.562 | 0.716 | 0.764 | 0.703 | 0.642 | 0.656
24 | LXF-289 | 1.04 | 0.906 | 0.947 | 0.905 | 0.936 | 0.146 | 0.146 | 0.2 | 0.152 | 0.214 | 1.05 | 1.03 | 1.11 | 1.02 | 1.02 | 0.371 | 0.356 | 0.366 | 0.351 | 0.365
25 | NCI-H1755 | 0.995 | 0.925 | 0.927 | 0.934 | 1.03 | 0.522 | 0.499 | 0.59 | 0.554 | 0.566 | 0.359 | 0.562 | 0.528 | 0.398 | 0.417 | 0.725 | 0.693 | 0.728 | 0.695 | 0.661
26 | NCI-H1437 | 0.941 | 0.52 | 0.446 | 0.496 | 0.554 | 0.416 | 0.43 | 0.41 | 0.397 | 0.412 | 1.11 | 1.05 | 1.19 | 1.09 | 1.2 | 0.597 | 0.552 | 0.542 | 0.535 | 0.552
27 | NCI-H2085 | 1.01 | 0.902 | 0.932 | 0.894 | 0.975 | 0.795 | 0.754 | 0.721 | 0.619 | 0.619 | 0.753 | 0.957 | 0.897 | 0.636 | 0.753 | 0.577 | 0.522 | 0.519 | 0.517 | 0.515
